Read-outs that look alike come from different tables or passages of the source.
Key:
[1] = Swiss, mouse, in vivo
Method: (§1) Mice were then decapitated according to selected time points, with blood samples collected following decapitation. The brain was then removed from the skull. For each mouse, the brain hemispheres and two blood samples were weighed in Econo glass vials for liquid scintillation counting (Perkin Elmer). All samples were treated with a tissue solubilizer (Solvable, Perkin Elmer). Blood samples were in addition decolored with 0.2 mL of 30% hydrogen peroxide solution to avoid color quenching issues. After complete tissue sample digestion (24 h in a water bath at 45°C), the vials were cooled and mixed with Ultima‐gold XR (Perkin Elmer). The radioactivity in each vial, expressed in disintegrations per minute (dpm) for ^3H and ^14C, was counted in a Perkin Elmer Tri‐Carb counter.
For [^3H]rosuvastatin, data collection was performed at 5 and 7 min post i.p. injection. […] This avoids quantification bias caused by the formation of possible radiolabelled metabolites.
First, the vascular volume (V vasc, μL/g) was estimated for each mouse as the brain volume of distribution (V d) of [^14C]sucrose: […]

[2] = BBB integrity: vascular volume (V vasc) of [14C]sucrose after i.p. injection; assay type: in vivo, Swiss mice; conditions: for Kp at 5 min: Swiss, mouse, brain/blood, ip, 0.31 MBq/kg, 5 min post i.p. injection
Method: as §1
First, the vascular volume (V vasc, μL/g) was estimated for each mouse as the brain volume of distribution (V d) of [^14C]sucrose:
[^14C]sucrose V d was calculated as the ratio of midbrain to blood carbon‐14 associated radioactivity (dpm/g) measured at 5 min post i.p. injection. Vvasc=Vdsucrose=Xsucrose,brain/Csucrose,blood
Where X sucrose,brain (dpm/g), is the calculated amount of [^14C]sucrose from the brain and C sucrose,blood (dpm/μL) its blood concentration. The data for any animal whose V vasc was an aberrant value was excluded from the study.
The vascular volume based [^14C]sucrose calculation was used as the outcome parameter for BBB integrity. Higher levels in V vasc indicate leakage of [^14C]sucrose into the brain parenchyma because of BBB leakage.

Structure (SMILES)	decrease of cerebral (brain) transport at P30 compared to P15 [1] [fold]	Kp at 5 min ([2]; mice at P5, brain/blood ratio, read-out: Vv, Mean)	Kp at 5 min ([2]; mice at P5, read-out: Vv, Median)	Kp at 5 min ([2]; mice at P15, brain/blood ratio, read-out: Vv, Mean)	Kp at 5 min ([2]; mice at P15, read-out: Vv, Median)	Kp at 5 min ([2]; mice at P30, brain/blood ratio, read-out: Vv, Mean)	Kp at 5 min ([2]; mice at P30, read-out: Vv, Median)	V vasc, comparison between ages ([2]; mice at P5, P15 and P30)
CC(C)c1nc(N(C)S(C)(=O)=O)nc(-c2ccc(F)cc2)c1/C=C/[C@@H](O)C[C@@H](O)CC(=O)O [3H-Rosuvastatin, rosuvastatin]	6.8	–	–	–	–	–	–	–
OC[C@H]1O[C@@](CO)(O[C@H]2O[C@H](CO)[C@@H](O)[C@H](O)[C@H]2O)[C@@H](O)[C@@H]1O [14C-Sucrose, sucrose]	–	0.0276	0.0235	0.0272	0.0256	0.0279	0.0292	did not differ between P5, P15, and P30

From article PMC12446565, “Perinatal Maturation of Drug Transporters and Claudin‐5 at the Blood–Brain Barrier” (CNS Neuroscience & Therapeutics, 2025)
